Among the data in ChEMBL document CHEMBL5096224, “First-in-Class Dual Mechanism Ferroptosis-HDAC Inhibitor Hybrids” (J Med Chem, 2022) are IC50 and Activity values, retold here.

Experiment [1] deals with T1, Protein deacetylase HDAC6 (Homo sapiens, UniProt Q9UBN7).
T1 sequence (Q9UBN7 whole entry): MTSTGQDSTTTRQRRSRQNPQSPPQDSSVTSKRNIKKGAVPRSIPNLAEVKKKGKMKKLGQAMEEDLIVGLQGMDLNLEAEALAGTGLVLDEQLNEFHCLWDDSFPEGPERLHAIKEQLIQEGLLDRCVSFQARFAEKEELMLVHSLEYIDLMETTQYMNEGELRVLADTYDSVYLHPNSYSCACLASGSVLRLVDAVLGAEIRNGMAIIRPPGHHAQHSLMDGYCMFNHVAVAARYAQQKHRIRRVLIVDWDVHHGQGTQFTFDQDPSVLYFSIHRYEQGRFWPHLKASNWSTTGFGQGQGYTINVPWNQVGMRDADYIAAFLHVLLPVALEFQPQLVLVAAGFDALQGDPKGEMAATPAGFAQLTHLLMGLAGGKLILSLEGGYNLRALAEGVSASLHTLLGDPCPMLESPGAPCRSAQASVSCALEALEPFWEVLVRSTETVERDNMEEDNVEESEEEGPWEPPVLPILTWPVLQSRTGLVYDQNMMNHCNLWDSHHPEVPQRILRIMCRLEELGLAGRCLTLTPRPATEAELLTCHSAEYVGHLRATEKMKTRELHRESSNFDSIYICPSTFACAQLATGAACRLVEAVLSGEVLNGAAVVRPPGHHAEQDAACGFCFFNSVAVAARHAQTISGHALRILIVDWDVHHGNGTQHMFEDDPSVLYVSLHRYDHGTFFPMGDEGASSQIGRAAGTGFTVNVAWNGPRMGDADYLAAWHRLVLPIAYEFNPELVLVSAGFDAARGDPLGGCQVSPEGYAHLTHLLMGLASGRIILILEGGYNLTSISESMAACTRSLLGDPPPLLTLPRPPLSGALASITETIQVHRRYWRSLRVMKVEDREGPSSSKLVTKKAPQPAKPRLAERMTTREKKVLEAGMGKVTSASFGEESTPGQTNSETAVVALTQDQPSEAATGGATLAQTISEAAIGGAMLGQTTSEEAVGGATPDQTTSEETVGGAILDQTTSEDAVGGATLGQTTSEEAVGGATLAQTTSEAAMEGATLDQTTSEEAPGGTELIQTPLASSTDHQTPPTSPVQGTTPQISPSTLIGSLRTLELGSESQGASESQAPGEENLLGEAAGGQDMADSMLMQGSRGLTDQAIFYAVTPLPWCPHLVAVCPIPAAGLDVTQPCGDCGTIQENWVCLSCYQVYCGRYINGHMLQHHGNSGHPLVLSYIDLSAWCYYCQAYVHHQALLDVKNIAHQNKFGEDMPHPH
Description: Inhibition of full length C-terminal FLAG-tagged human recombinant HDAC6 expressed inSf9 insect cells. On the set-up: species or system Sf9.

The next experiment deals with NCI-H522. Description: Induction of cell cycle arrest in human NCI-H522 cells assessed as accumulation at S phase 5 uM incubated for 24 to 72 hrs by PI staining based flow cytometric analysis. The experiment is classed as functional. The settings on record: time lower […], time upper […].

pIC50: −log10 of the molar value. Activity calls are given as the source filed them. No cut-off for these calls is given here.

For orientation: pIC50 means −log10 of the IC50, conventionally taken in molar units. On to `C#Cc1nc(C(=O)NCCCCCCC(=O)NO)cs1`, for which the pIC50 in experiment [1] is 9.00. In addition, the result in the experiment with NCI-H522 was Active.
